One assay concerns the target Procathepsin L (Homo sapiens, UniProt P07711). Put plainly: Inhibition of human recombinant cathepsin L after 30 mins by spectrophotometric assay.
The target of the next assay is Cathepsin S (Homo sapiens, UniProt P25774). The assay can be described thus: Inhibition of human cathepsin S after 30 mins by spectrophotometric assay.
A further assay deals with T1, Cathepsin K (Homo sapiens, UniProt P43235).
T1 sequence (P43235 whole entry): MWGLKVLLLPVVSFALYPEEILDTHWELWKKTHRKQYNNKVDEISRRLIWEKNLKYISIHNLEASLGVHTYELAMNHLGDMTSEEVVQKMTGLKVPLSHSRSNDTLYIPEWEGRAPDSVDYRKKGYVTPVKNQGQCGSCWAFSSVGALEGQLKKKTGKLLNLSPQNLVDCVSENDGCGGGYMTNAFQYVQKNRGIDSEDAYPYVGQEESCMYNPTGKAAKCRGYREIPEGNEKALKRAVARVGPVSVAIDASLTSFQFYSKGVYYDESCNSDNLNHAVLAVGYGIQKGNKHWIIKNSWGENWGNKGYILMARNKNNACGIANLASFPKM
The assay can be described thus: Inhibition of human recombinant cathepsin K after 30 mins by spectrophotometric assay.

Another assay has as its target Cathepsin B (Homo sapiens, UniProt P07858). Put plainly: Inhibition of human recombinant cathepsin B after 30 mins by spectrophotometric assay.
The species entered for assay [1] is Homo sapiens. The assay can be described thus: Selectivity ratio, ratio of Ki for human recombinant cathepsin L to Ki for human recombinant cathepsin K.
For assay [2], the species on record is Homo sapiens. Put plainly: Selectivity ratio, ratio of Ki for human recombinant cathepsin B to Ki for human recombinant cathepsin K.
Assay [3] is filed under the species Homo sapiens. Put plainly: Selectivity ratio, ratio of Ki for human cathepsin S to Ki for human recombinant cathepsin K.
The target in assay [4] is T2, Cathepsin K (Homo sapiens) (UniProt P43235).
T2 sequence (whole entry): T1 sequence (P43235 whole entry)
The assay can be described thus: Reversible inhibition of human recombinant cathepsin K at 300 nM preincubated for 30 mins by spectrophotometric assay.

The structures appear in SMILES notation. Active and inactive are the calls of the source. The calls are words filed in the database; no cut-off is given here.

Cathepsin S, sequence (P25774 whole entry): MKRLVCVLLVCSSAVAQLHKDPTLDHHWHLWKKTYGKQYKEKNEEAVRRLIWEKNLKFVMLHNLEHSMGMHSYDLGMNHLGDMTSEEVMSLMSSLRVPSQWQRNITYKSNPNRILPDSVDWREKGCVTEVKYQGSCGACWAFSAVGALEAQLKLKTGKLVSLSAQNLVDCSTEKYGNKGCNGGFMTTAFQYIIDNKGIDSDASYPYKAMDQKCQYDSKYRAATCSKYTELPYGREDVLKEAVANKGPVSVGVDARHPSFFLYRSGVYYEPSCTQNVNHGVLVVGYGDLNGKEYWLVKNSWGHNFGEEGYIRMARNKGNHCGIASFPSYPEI
Procathepsin L, sequence (P07711 whole entry): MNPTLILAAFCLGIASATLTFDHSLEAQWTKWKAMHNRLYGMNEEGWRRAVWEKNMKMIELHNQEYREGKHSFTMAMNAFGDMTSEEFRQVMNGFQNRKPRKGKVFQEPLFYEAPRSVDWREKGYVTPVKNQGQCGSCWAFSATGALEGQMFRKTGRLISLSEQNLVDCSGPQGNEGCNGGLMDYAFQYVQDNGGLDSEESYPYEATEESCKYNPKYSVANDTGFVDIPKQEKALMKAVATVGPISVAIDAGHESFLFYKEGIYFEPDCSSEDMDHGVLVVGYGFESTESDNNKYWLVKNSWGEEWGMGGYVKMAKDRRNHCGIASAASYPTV

As for `CN(C#N)N(C)C(=O)[C@H](Cc1ccccc1)NC(=O)OCc1ccccc1`, the inhibition constant (Ki) on Procathepsin L was determined as 0.16 nM; on Cathepsin S it was 0.51 nM; at Cathepsin K it was 0.14 nM; on Cathepsin B, 0.68 nM.

With `Cc1nc(-c2ccc(NC(=O)N[C@@H](CC(C)C)C(=O)N(C)N(C)C#N)cc2)no1`, the Ki on Procathepsin L is 2 nM; at Cathepsin S, 0.19 nM; at Cathepsin K, 0.045 nM; at Cathepsin B it was 2.4 nM.

In the case of `Cc1nc(-c2ccc(CNC(=O)N[C@@H](CC(C)C)C(=O)N(C)N(C)C#N)cc2)no1`, the Ki at Procathepsin L worked out at 1.4 nM; on Cathepsin S it was 0.17 nM; at Cathepsin K it was 0.11 nM; at Cathepsin B it was 2.8 nM.

For `CC(C)C[C@H](NC(=O)c1ccc(-c2noc(-c3cccs3)n2)cc1)C(=O)NCC#N`, the Ki on Procathepsin L is 940 nM; on Cathepsin S, 140 nM; on Cathepsin K, 2.9 nM; on Cathepsin B, above 22000 nM. Further, the Ratio Ki in the assay filed under Homo sapiens [1] came out at 300.

In the case of `CC(C)C[C@H](NC(=O)OCc1ccccc1)C(=O)N(C)N(C)C#N`, the Ki worked out at 0.9 nM on Procathepsin L, 0.33 nM at Cathepsin S, 0.064 nM at Cathepsin K and 0.43 nM at Cathepsin B.

`CN(C#N)N(C)C(=O)[C@H](Cc1ccc(O)cc1)NC(=O)OCc1ccccc1`: the Ki is 0.36 nM at Procathepsin L, 0.86 nM at Cathepsin S, 0.16 nM on Cathepsin K and 0.38 nM at Cathepsin B.

Turning to `CC(C)C[C@H](NC(=O)NCc1ccc(-c2noc(-c3cccs3)n2)cc1)C(=O)N(C)N(C)C#N`, the Ki on Procathepsin L came out at 1.1 nM; on Cathepsin S it was 0.16 nM; on Cathepsin K it was 0.072 nM; at Cathepsin B, 1.3 nM.

For `CC(C)C[C@H](NC(=O)c1ccc(-c2noc(-c3cccs3)n2)cc1)C(=O)N(C)N(C)C#N`, the Ki at Procathepsin L came out at 0.22 nM; at Cathepsin S, 0.15 nM; on Cathepsin K, 0.032 nM; at Cathepsin B it was 0.36 nM.

In the case of `CC[C@H](C)[C@H](NC(=O)OCc1ccccc1)C(=O)N(C)N(C)C#N`, the Ki at Procathepsin L came out at 2.6 nM; on Cathepsin S, 0.83 nM; on Cathepsin K, 0.46 nM; at Cathepsin B it was 0.88 nM.

As to `CC(C)C[C@H](NC(=O)Nc1ccc(-c2noc(-c3cccs3)n2)cc1)C(=O)NCC#N`, the Ki at Procathepsin L was 4700 nM; on Cathepsin S, 180 nM; at Cathepsin K, 34 nM; at Cathepsin B, above 22000 nM.

On to `CC(C)C[C@H](NC(=O)Nc1ccccc1)C(=O)N(C)N(C)C#N`, for which the Ki on Procathepsin L is 0.045 nM; on Cathepsin S, 0.16 nM; at Cathepsin K, 0.017 nM; on Cathepsin B, 1.3 nM.

On to `C[C@H](NC(=O)OCc1ccccc1)C(=O)N(C)N(C)C#N`, for which the Ki on Procathepsin L turned out to be 480 nM; on Cathepsin S, 9.1 nM; on Cathepsin K, 33 nM; on Cathepsin B, 55 nM.

Turning to `CC(C)C[C@@H](C(=O)NCC#N)N(C)C(=O)c1ccc(-c2noc(-c3cccs3)n2)cc1`, the Ki at Procathepsin L is above 22000 nM; at Cathepsin S, above 22000 nM; on Cathepsin K, 270 nM; on Cathepsin B, above 22000 nM.

On to `CC(C)[C@H](NC(=O)OCc1ccccc1)C(=O)N(C)N(C)C#N`, for which the inhibition constant (Ki) came out at 1.5 nM on Procathepsin L, 1.5 nM at Cathepsin S, 0.87 nM on Cathepsin K and 4.3 nM on Cathepsin B.

Consider `CC(C)C[C@H](NC(=O)Nc1ccc(-c2noc(-c3cccs3)n2)cc1)C(=O)N(C)N(C)C#N`, for which the Ki on Procathepsin L stood at 4.4 nM; on Cathepsin S, 0.32 nM; at Cathepsin K, 0.022 nM; at Cathepsin B, 2.4 nM.

Regarding `CC(C)C[C@H](NC(=O)NCc1ccccc1)C(=O)N(C)N(C)C#N`, the Ki at Procathepsin L was found to be 0.39 nM; at Cathepsin S, 0.2 nM; at Cathepsin K it was 0.011 nM; on Cathepsin B, 0.65 nM.

As for `CN(C#N)N(C)C(=O)CNC(=O)OCc1ccccc1`, the Ki on Procathepsin L is 860 nM; on Cathepsin S, 800 nM; on Cathepsin K it was 260 nM; at Cathepsin B it was 840 nM.

For `CC(C)C[C@@H](C(=O)N(C)N(C)C#N)N(C)C(=O)c1ccc(-c2noc(-c3cccs3)n2)cc1`, the Ki worked out at 2700 nM on Procathepsin L, 140 nM on Cathepsin S, 0.63 nM at Cathepsin K and 510 nM at Cathepsin B. Moreover, the Ratio Ki in the assay filed under Homo sapiens [1] is 4300; in the assay listed under Homo sapiens [2], 800; in the assay listed under Homo sapiens [3], 200. The result in assay [4] was Active.

With `CN(C#N)N(C)C(=O)[C@H](CC1CCCCC1)NC(=O)OCc1ccccc1`, the Ki at Procathepsin L was found to be 0.4 nM; at Cathepsin S, 0.2 nM; on Cathepsin K, 0.071 nM; at Cathepsin B, 0.48 nM.

For orientation: Ki means the equilibrium dissociation constant of an inhibitor or competing ligand from its target.
